Data taken from patent US20220354963A1, “EXTRACELLULAR VESICLE LINKED TO MOLECULES AND USES THEREOF” (Codiak BioSciences, Inc., priority 2019, published 2022).

How the values were obtained:
STAT3 mRNA [1] = assay: STAT3 mRNA expression in IL-6 stimulated PANC-1 cells, branched DNA assay; type: cell-based, human; details: for STAT3 Inhibition 2 nM / STAT3 Inhibition 20 nM: 2 point DR data; for IC50: 5 point DR data, Lipofectamine2000 transfection, 48 hr, read-out: STAT3 PANC1 IC50 Prism
Description: (§1) The ASOs of the present disclosure were tested for their ability to reduce STAT3 mRNA expression in IL-6 stimulated PANC-1 cells. The PANC-1 cells were grown in cell culture media and seeded onto a 96 well plate at a density of 20,000 cells/well. ASOs were tested in two separate cohorts: 2 doses or 5 doses were given to the PANC-1 cells (See TABLE 3) at final concentrations of 20 nM and 2 nM, respectively. The assay used Lipofectamine2000 transfection and a 48 hr treatment cycle, with incubation at 37° C. and 5% C02. Analysis of the mRNA expression was then carried out using a branched DNA assay.

GAPDH = GAPDH inhibition in PANC-1 cells, same assay; type: cell-based, human; details: 2 point DR data
Description: as §1, with “The” for “The ASOs of the present disclosure were tested for their ability to reduce STAT3 mRNA expression in IL-6 stimulated PANC-1 cells. The”

STAT3 mRNA [2] = assay: STAT3 mRNA expression in IL-6 stimulated PANC-1 cells, branched DNA assay; type: cell-based, human; details: 5 point DR data
IL-1β = assay: In vivo peritonitis model, intraperitoneal LPS challenge, serum IL-1β; parameters: species or system mouse; details: pre-treatment intraperitoneally 1 hour prior to challenge; 3 hours post-challenge
Description: Intraperitoneal LPS challenge induces the production of IL-1β in mice, which can be detected in the systemic circulation 3 hours post-challenge.

Compound | STAT3 Inhibition 2 nM (STAT3 mRNA [1]) | STAT3 Inhibition 20 nM (STAT3 mRNA [1]) | IC50 (STAT3 mRNA [1]) | GAPDH Inhibition 20 nM (GAPDH) | STAT3 Max inihibition 24 nM (STAT3 mRNA [2]) | induction of IL-1β in the serum of LPS-challenged mice (IL-1β)
116 (CTCCTGTTGATCGCAGCGAA; chemistry not given here) [compound 116] | 64.5 | 85.5 | 1.85 nM | 16.00 | 69.78 | 
120 (ATTATCTGAACCCCACTTCG; chemistry not given here) [compound 120] | 62.8 | 93.4 | 2.05 nM | 12.00 | 87.43 | 
124 (ATAGAGATTCTCGAAAGGTA; chemistry not given here) [compound 124] | 62.6 | 83.3 | 1.6 nM | 13.00 | 86.46 | 
125 (CACGTACTTTCTGTACTTCT; chemistry not given here) [compound 125] | 61.7 | 85.1 | 2.3 nM | 14.00 | 81.67 | 
126 (TGGAATCTGCTTCTCACGTA; chemistry not given here) [compound 126] | 61.4 | 90.7 | 2.78 nM | 13.00 | 87.71 | 
128 (ACCCAGACGGGCATTCCTGT; chemistry not given here) [compound 128] | 61.1 | 81.1 | 3.56 nM | 19.00 | 79.56 | 
130 (TGTAGCGTTTGTTGAGGCTC; chemistry not given here) [compound 130] | 59.3 | 80.7 | 1.68 nM | 13.00 | 72.16 | 
131 (AGTCGTGTGTAGCGTTTGTT; chemistry not given here) [compound 131] | 58.9 | 90.7 | 2.83 nM | 12.00 | 75.20 | 
133 (GCAGTCGTGTGTAGCGTTTG; chemistry not given here) [compound 133] | 55.9 | 90.7 | 2.24 nM | 14.00 | 81.73 | 
134 (CGCAGTCGTGTGTAGCGTTT; chemistry not given here) [compound 134] | 54.3 | 82.8 | 2.13 nM | 10.00 | 77.94 | 
135 (ACGTCTTGGTCTTGCCGATG; chemistry not given here) [compound 135] | 53.9 | 84.2 | 1.05 nM | 4.00 | 78.59 | 
137 (ATCTTAATGGGACTCACGGG; chemistry not given here) [compound 137] | 53.0 | 87.4 | 1.8 nM | −2.00 | 79.46 | 
138 (CCATCTTAATGGGACTCACG; chemistry not given here) [compound 138] | 53.0 | 86.8 | 1.31 nM | 9.00 | 85.33 | 
139 (ACTCCATCTTAATGGGACTC; chemistry not given here) [compound 139] | 52.8 | 83.4 | 4.02 nM | 10.00 | 72.50 | 
142 (GGCAGCAGCTCATGATCAGG; chemistry not given here) [compound 142] | 51.7 | 80.0 | 6.76 nM | 9.00 | 76.10 | 
145 (GTCCTATGTGCTCGTCAAAG; chemistry not given here) [compound 145] | 50.2 | 89.2 | 3.06 nM | 17.00 | 85.73 | 
CC(C)(O)c1coc(S(=O)(=O)NC(=O)Nc2c3c(cc4c2CCC4)CCC3)c1 [MCC950] |  |  |  |  |  | inhibited
